These results are taken from patent US4963566A, “Benzimidazolyl-sulfinyl-tetrahydroquinolines” (Otsuka Pharmaceutical Co., Ltd., priority 1986, dated 1990).

pIC50: −log10 of the molar value.

The target in this assay is T1, H^+ +K^+ ATPase (Sus scrofa, UniProt P19156).
T1 construct: prepared from porcine stomach; from tissue; host or cells: porcine stomach
T1 sequence (P19156 2-1034 limits assumed): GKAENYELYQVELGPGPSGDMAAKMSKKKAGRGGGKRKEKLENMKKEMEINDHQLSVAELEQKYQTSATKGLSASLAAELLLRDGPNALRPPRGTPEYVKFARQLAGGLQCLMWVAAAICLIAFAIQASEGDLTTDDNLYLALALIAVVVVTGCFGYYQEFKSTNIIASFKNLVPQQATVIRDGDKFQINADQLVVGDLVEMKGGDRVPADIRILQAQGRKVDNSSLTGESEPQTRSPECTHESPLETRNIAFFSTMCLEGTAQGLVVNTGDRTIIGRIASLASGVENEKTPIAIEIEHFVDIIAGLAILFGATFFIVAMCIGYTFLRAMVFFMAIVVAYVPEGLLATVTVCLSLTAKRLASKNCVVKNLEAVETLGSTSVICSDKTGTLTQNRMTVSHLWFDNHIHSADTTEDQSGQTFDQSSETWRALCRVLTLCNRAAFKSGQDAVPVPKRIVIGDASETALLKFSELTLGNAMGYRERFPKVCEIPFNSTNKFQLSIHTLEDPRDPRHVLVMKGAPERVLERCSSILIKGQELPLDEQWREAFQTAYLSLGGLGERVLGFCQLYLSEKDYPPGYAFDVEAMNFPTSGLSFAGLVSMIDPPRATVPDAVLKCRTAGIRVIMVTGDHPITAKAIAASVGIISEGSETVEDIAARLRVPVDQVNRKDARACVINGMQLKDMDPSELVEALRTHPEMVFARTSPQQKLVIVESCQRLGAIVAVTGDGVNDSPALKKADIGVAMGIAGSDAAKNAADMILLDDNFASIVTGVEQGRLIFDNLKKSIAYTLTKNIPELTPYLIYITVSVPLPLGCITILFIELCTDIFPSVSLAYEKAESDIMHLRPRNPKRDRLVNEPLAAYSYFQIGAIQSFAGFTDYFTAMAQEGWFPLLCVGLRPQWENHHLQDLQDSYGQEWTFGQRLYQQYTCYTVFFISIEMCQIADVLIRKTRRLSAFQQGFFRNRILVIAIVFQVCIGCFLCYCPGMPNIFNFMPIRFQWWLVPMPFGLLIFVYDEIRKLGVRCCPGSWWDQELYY
T1 sequence (P18434 whole entry partner): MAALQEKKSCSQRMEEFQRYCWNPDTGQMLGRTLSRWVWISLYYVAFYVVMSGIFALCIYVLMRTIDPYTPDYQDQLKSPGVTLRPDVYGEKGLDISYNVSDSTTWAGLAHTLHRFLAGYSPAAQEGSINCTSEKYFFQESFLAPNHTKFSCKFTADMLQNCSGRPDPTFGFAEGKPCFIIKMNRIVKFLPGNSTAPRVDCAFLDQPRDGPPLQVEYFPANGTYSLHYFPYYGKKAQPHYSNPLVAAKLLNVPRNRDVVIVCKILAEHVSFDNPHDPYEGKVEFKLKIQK
Put plainly: H+ +K+ ATPase inhibition (inorganic phosphoric acid release). In kind it is biochemical. The conditions noted are these: enzyme prepared from porcine stomach; 30 min with compound at room temperature, pH 6.1; then 30 min at 37° C., pH 7.4, 20 mM KCl. As to the method: H^+ +K^+ ATPase (adenosine triphosphatase) (amount of protein: 10 μg) prepared from porcine stomach was added to a Pipes-TRIS [i.e. 2-amino-2-(hydroxymethyl)-1,3-propanediol] buffer solution (pH 6.1) containing 2 mM of piperazine N,N'-bis(2-ethanesulfonic acid), and the mixture was let stand at room temperature. A test compound was dissolved in dimethyl formamide, and the mixture was added to said H^+ +K^+ ATPase buffer solution so that the final concentration should be 1% and let stand for reaction for 30 minutes at room temperature. Then a 75 mM Pipes-TRIS buffer (1 ml, pH 7.4) (containing 4 mM MgCl2, 4 mM Na2 ATP, and 20 mM KCl) and a 75 mM Pipes-TRIS buffer (1 ml, pH 7.4) (containing 4 mM MgCl2, and 4 mM Na2 ATP) were added to the solution individually to make two kinds of samples and these samples were presented for reaction for 30 minutes at 37° C. 40% Trichloroacetic acid (0.3 ml) was added to each sample to stop the reaction. The solution were subjected to centrifugal separation (3000 rpm) for 10 minutes, and the supernatant was taken off, then the formed inorganic phosphoric acid was measured by Fiske and Subbarow's method [J. Biol. Chem. vol. 66, 375 (1925)]. The value of deducting the amount of inorganic phosphoric acid taken from the Pipes-Tris buffer not containing 20 mM KCl from that taken from the Pipes-Tris buffer containing 20 mM KCl was calculated in terms of unit protein and unit hour to be defined as an activity index of enzyme. Inhibition level (%) in doses of administration was estimated by control values and activity indices of enzyme, and from the obtained inhibition level (%), IC50 (dose of administration of compounds to inhibit in 50%) was obtained.
By pIC50 is commonly meant the negative decadic logarithm of the IC50, by convention in mol/L. Consider `CCN1CCCc2cccc(C[S+]([O-])c3nc4ccccc4[nH]3)c21` (stereo not drawn) [Test compound No. 36, 1-ethyl-8-(2-benzimidazolyl)sulfinylmethyl-1,2,3,4-tetrahydroquinoline], for which the negative logarithm of the IC50 (pIC50) is 6.35.
The result for `CCN1CCC(C)c2cccc(C[S+]([O-])c3nc4cc(OC)c(F)cc4[nH]3)c21` (stereo not drawn) [Test compound No. 37, 1-ethyl-8-(5-fluoro-6-methoxy-2-benzimidazolyl)sulfinylmethyl-4-methyl-1,2,3,4-tetrahydroquinoline] reads 6.05; that for `C=CCN1CC(C)Cc2cccc(C[S+]([O-])c3nc4ccccc4[nH]3)c21` (stereo not drawn) [Test compound No. 38, 1-allyl-8-(2-benzimidazolyl)sulfinylmethyl-3-methyl-1,2,3,4-tetrahydroquinoline], 6.08.
The result for `CC1=CCN(C)c2c(C[S+]([O-])c3nc4ccc(C)cc4[nH]3)cccc21` (stereo not drawn) [Test compound No. 39, 1,4-dimethyl-8-(5-methyl-2-benzimidazolyl)sulfinylmethyl-1,2-dihydroquinoline] reads 6.89; that for `COc1ccc2nc([S+]([O-])Cc3cccc4c3N(C)CC=C4C)[nH]c2c1` (stereo not drawn) [Test compound No. 40, 1,4-dimethyl-8-(5-methoxy-2-benzimidazolyl)sulfinylmethyl-1,2-dihydroquinoline], 6.28; that for `CCN1CC=C(C)c2cccc(C[S+]([O-])c3nc4ccccc4[nH]3)c21` (stereo not drawn) [Test compound No. 41, 1-ethyl-8-(2-benzimidazolyl)sulfinylmethyl-4-methyl-1,2-dihydroquinoline 1/2-hydrate], 6.64.
The result for `CC1=C(C)c2cccc(C[S+]([O-])c3nc4ccccc4[nH]3)c2N(C)C1` (stereo not drawn) [Test compound No. 42, 1,3,4-trimethyl-8-(2-benzimidazolyl)sulfinylmethyl-1,2-dihydroquinoline] reads 6.26; that for `CN1CCC(=O)c2cccc(C[S+]([O-])c3nc4ccccc4[nH]3)c21` (stereo not drawn) [Test compound No. 43, 1-methyl-8-(2-benzimidazolyl)sulfinylmethyl-4-oxo-1,2,3,4-tetrahydroquinoline], 5.17.
As for `CN1CCC(C)(O)c2cccc(C[S+]([O-])c3nc4ccccc4[nH]3)c21` (stereo not drawn) [Test compound No. 45, 1,4-dimethyl-8-(2-benzimidazolyl)sulfinylmethyl-4-hydroxy-1,2,3,4-tetrahydroquinoline], the pIC50 is 5.66.
The figure for `CCC1(O)CCN(C)c2c(C[S+]([O-])c3nc4ccccc4[nH]3)cccc21` (stereo not drawn) [Test compound No. 46, 1-methyl-8-(2-benzimidazolyl)sulfinylmethyl-4-ethyl-4-hydroxy-1,2,3,4-tetrahydroquinoline] is 5.74.
The result for `CCN1CCC(c2ccccc2)c2cccc(C[S+]([O-])c3nc4ccc(C)cc4[nH]3)c21` (stereo not drawn) [Test compound No. 47, 1-ethyl-8-(5-methyl-2-benzimidazolyl)sulfinylmethyl-4-phenyl-1,2,3,4-tetrahydroquinoline] reads 5.82; that for `CCN1CCC(OC)c2cccc(C[S+]([O-])c3nc4ccccc4[nH]3)c21` (stereo not drawn) [Test compound No. 48, 1-ethyl-8-(2-benzimidazolyl)sulfinylmethyl-4-methoxy-1,2,3,4-tetrahydroquinoline], 5.96; that for `CCN1CCC(=NO)c2cccc(C[S+]([O-])c3nc4ccccc4[nH]3)c21` (stereo not drawn) [Test compound No. 50, 1-ethyl-8-(2-benzimidazolyl)sulfinylmethyl-4-hydroxyimino-1,2,3,4-tetrahydroquinoline], 5.33.
The figure for `C=CCOC1CCN(CC)c2c(C[S+]([O-])c3nc4ccccc4[nH]3)cccc21` (stereo not drawn) [Test compound No. 51, 1-ethyl-8-(2-benzimidazolyl)sulfinylmethyl-4-allyloxy-1,2,3,4-tetrahydroquinoline] is 5.54; for `C=C1CCN(CC)c2c(C[S+]([O-])c3nc4ccccc4[nH]3)cccc21` (stereo not drawn) [Test compound No. 52, 1-ethyl-8-(2-benzimidazolyl)sulfinylmethyl-4-methylene-1,2,3,4-tetrahydroquinoline] it is 5.41; for `CCN1CC(C(=O)OC)Cc2cccc(C[S+]([O-])c3nc4ccccc4[nH]3)c21` (stereo not drawn) [Test compound No. 53, 1-ethyl-8-(2-benzimidazolyl)sulfinylmethyl-3-methoxycarbonyl-1,2,3,4-tetrahydroquinoline] it is 5.31.
Consider `CCN1CC(CO)Cc2cccc(C[S+]([O-])c3nc4ccccc4[nH]3)c21` (stereo not drawn) [Test compound No. 54, 1-ethyl-8-(2-benzimidazolyl)sulfinylmethyl-3-hydroxymethyl-1,2,3,4-tetrahydroquinoline], for which the pIC50 was 5.92.
The result for `CCN1CC(C(=O)N(C)C)Cc2cccc(C[S+]([O-])c3nc4ccccc4[nH]3)c21` (stereo not drawn) [Test compound No. 55, 1-ethyl-8-(2-benzimidazolyl)sulfinylmethyl-3-dimethylcarbamoyl-1,2,3,4-tetrahydroquinoline 1/3-hydrate] reads 5.29.
The result for `CCN1CC(C(=O)O)Cc2cccc(C[S+]([O-])c3nc4ccccc4[nH]3)c21` (stereo not drawn) [Test compound No. 56, 1-ethyl-8-(2-benzimidazolyl)sulfinylmethyl-3-carboxy-1,2,3,4-tetrahydroquinoline 1/2hydrate] reads 5.72; that for `CCN1CC(C(=O)N2CCCCC2)Cc2cccc(C[S+]([O-])c3nc4ccccc4[nH]3)c21` (stereo not drawn) [Test compound No. 58, 1-ethyl-8-(2-benzimidazolyl)sulfinylmethyl-3-(1-piperizinyl)carbonyl-1,2,3,4-tetrahydroquinoline], 5.23; that for `CCN1CCC(N(C)C(C)=O)c2cccc(C[S+]([O-])c3nc4ccccc4[nH]3)c21` (stereo not drawn) [Test compound No. 59, 1-ethyl-8-(2-benzimidazolyl)sulfinylmethyl-4-(N-methyl-N-acetyl)amino-1,2,3,4-tetrahydroquinoline], 5.24.
On to `C=CCNC1CCN(CC)c2c(C[S+]([O-])c3nc4ccc(C)cc4[nH]3)cccc21` (stereo not drawn) [Test compound No. 60, 1-ethyl-8-(5-methyl-2-benzimidazolyl)sulfinylmethylmethyl-4-allylamino-1,2,3,4-tetrahydroquinoline], for which the negative logarithm of the IC50 (pIC50) was 5.48.
The result for `C=CCN1CCC(OC)c2cccc(C[S+]([O-])c3nc4ccc(C)cc4[nH]3)c21` (stereo not drawn) [Test compound No. 62, 1-allyl-8-(5-methyl-2-benzimidazolyl)sulfinylmethylmethyl-4-methoxy-1,2,3,4-tetrahydroquinoline] reads 5.40.
The figure for `CCN1CCC(CO)c2cccc(C[S+]([O-])c3nc4cc(OC)c(F)cc4[nH]3)c21` (stereo not drawn) [Test compound No. 63, 1-ethyl-8-(5-fluoro-6-methoxy-2-benzimidazolyl)sulfinylmethyl-4-hydroxymethyl-1,2,3,4-tetrahydroquinoline] is 5.35.
As for `CCN1CCC(N(C)C2CC2)c2cccc(C[S+]([O-])c3nc4cc(F)c(OC)cc4[nH]3)c21` (stereo not drawn) [Test compound No. 64, 1-ethyl-8-(5-fluoro-6-methoxy-2-benzimidazolyl)sulfinylmethyl-4-(N-methyl-N-cyclopropyl)amino-1,2,3,4-tetrahydroquinoline], the negative logarithm of the IC50 (pIC50) was 5.40.
For the compound `CCN1CCC(N(C=O)C2CC2)c2cccc(C[S+]([O-])c3nc4cc(F)c(OC)cc4[nH]3)c21` (stereo not drawn) [Test compound No. 65, 1-ethyl-8-(5-fluoro-6-methoxy-2-benzimidazolyl)sulfinylmethyl-4-(N-formyl-N-cyclopropyl)amino-1,2,3,4-tetrahydroquinoline], the pIC50 was 5.55.
For the compound `CCN1CC(C)(C)C(OC)c2cccc(C[S+]([O-])c3nc4ccc(C)cc4[nH]3)c21` (stereo not drawn) [Test compound No. 66, 1-ethyl-8-(5-methyl-2-benzimidazolyl)sulfinylmethyl-4-methoxy-3,3-dimethyl-1,2,3,4-tetrahydroquinoline], the negative-log IC50 (pIC50) was 6.48.
With `CCOC(N(C)C1CCN(CC)c2c(C[S+]([O-])c3nc4cc(F)c(OC)cc4[nH]3)cccc21)C(F)(F)F` (stereo not drawn) [Test compound No. 69, 1-ethyl-8-(5-fluoro-6-methoxy-2-benzimidazolyl)sulfinylmethyl-4-[N-methyl-N-(2,2,2-trifluoro-1ethoxyethyl)]amino-1,2,3,4-tetrahydroquinoline], the pIC50 is 5.31.
Take `C=CCN(Cc1ccc(OC)cc1)C1CCN(CC)c2c(C[S+]([O-])c3nc4cc(F)c(OC)cc4[nH]3)cccc21` (stereo not drawn) [Test compound No. 70, 1-ethyl-8-(5-fluoro-6-methoxy-2-benzimidazolyl)sulfinylmethyl-4-[N-allyl-N-(4-methoxybenzyl)]amino1,2,3,4-tetrahydroquinoline]: the pIC50 was 5.42.
The result for `C=CCN(C)C1CCNc2c(C[S+]([O-])c3nc4cc(F)c(OC)cc4[nH]3)cccc21` (stereo not drawn) [Test compound No. 71, 8-(5-fluoro-6-methoxy-2-benzimidazolyl)sulfinylmethyl-4-(N-allyl-N-methyl)amino-1,2,3,4-tetrahydroquinoline] reads 5.24.
